From patent US8809280B2, “Therapeutic peptides” (Lytix Biopharma AS, priority 2009, dated 2014)
Values after ≈ are worked out from the molar mass of the structure shown. Like-named read-outs stand apart in the source and are kept apart here.

Assays:
[1] = molecular target: α-chymotrypsin (Bos taurus, UniProt P00766, DEL14-15/DEL147-148); assay: Stability against α-chymotrypsin; type: in vitro ADME; conditions: over a period of 48 hours
Description: The stability testing against α-chymotrypsin was conducted by dissolving the desired compounds to 1 mg/ml in water. α-Chymotrypsin was dissolved to 0.1 mg/ml in 1 mM HCl containing 2 mM CaCl2. The enzymatic digestion was performed in 100 mM TRIS HCl containing 10 mM CaCl2. Final enzyme concentration was 2 μg/ml, and final peptide concentration was 100 μg/ml. Total volume was 0.5 ml.
15 μl samples were collected at 0, 15, 30, 60, 120 and 240 min in addition to the 24 and 48 hours samples. To the samples it was added an external standard (atenolol hydrochloride) and 100 μl 10% acetic acid to terminate digestion before it was diluted to 1 ml with water.
For every test there were done a negative control without enzyme to ensure that degradation was due to enzyme activity and not other factors. Succinyl-ala-ala-pro-phe-para nitroanhiine was used as positive control. All test were run in triplicates.

[2] = tested on: human red blood cells; assay: cells; type: cell-based
Method in brief: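 Washed heparinized RBCs, diluted to 10% hematocrit then to 1% v/v final, incubated with compounds in PBS (1–1000 μg/mL) for 1 h at 37 °C with agitation. Hemoglobin release read at 405 nm against PBS (0%) and 0.1% Triton X-100 (100%); value reported is concentration giving 50% hemolysis.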

[3] = Phospholipid vesicle based barrier model permeability; type: in vitro ADME
Source text: Encouraged by the theoretical calculations, the permeability of the β^2,2-amino acid derivatives was further investigated using a recently established phospholipid vesicle based barrier model (Flaten et al. Eur. J. Pharm. Sci. [2006] 27, 80-90).

[4] = tested on: methicillin resistant Staphylococcus aureus (ATCC 33591); assay: microbe, parasite or virus in culture; type: cell-based; conditions: for MIC: read-out: MIC MTRSA
Method in brief: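 Di-TFA salts tested in duplicate at 200 down to 0.5 μg/ml against exponentially grown bacteria at 2×10^6 cfu/ml. Growth judged by well turbidity, with no-peptide and gentamicin controls.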

[5] = tested on: methicillin resistant Staphylococcus epidermidis (ATCC 27626); assay: microbe, parasite or virus in culture; type: cell-based; conditions: for MIC: read-out: MIC MRSE
Method in brief: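 Exponentially grown bacteria (2% peptone water) at 2×10^6 cfu/ml exposed in duplicate to di-TFA salts at 0.5–200 μg/ml. Growth or no growth judged by well turbidity; no-peptide and gentamicin controls included.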

[6] = tested on: Staphylococcus aureus (ATTC 25923); assay: microbe, parasite or virus in culture; type: cell-based; conditions: for MIC: read-out: MIC S. aureus
Method in brief: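 Di-TFA salts tested in duplicate at 0.5–200 μg/ml against exponential-phase bacteria at 2×10^6 cfu/ml grown in 2% peptone water. Growth judged by well turbidity, with no-peptide and gentamicin controls.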

[7] = tested on: Escherichia coli (ATTC 25922); assay: microbe, parasite or virus in culture; type: cell-based; conditions: for MIC: read-out: MIC E. coli
Method in brief: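 Broth dilution in 2% Bacto Peptone water, inoculum 2×10^6 cfu/ml of exponential-phase bacteria; compounds (di-TFA salts) tested in duplicate at 200 down to 0.5 μg/ml. Growth judged by well turbidity, with no-peptide negative and gentamicin positive controls.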

[8] = tested on: Pseudomonas aeruginosa (ATCC 27853); assay: microbe, parasite or virus in culture; type: cell-based; conditions: for MIC: Pseudomonas aeruginosa, ATCC27853, Example 4, ATCC 27853, di-trifluoroacetate salts, highest concentration tested 200 μg/ml, read-out: MIC P. aeruginosa; for Therapeutic index P. aeruginosa: EC50 RBC divided by MIC
Description: Each compound was tested in duplicates at 200, 100, 50, 35, 15, 10, 5, 2.5, 1, 0.5 μg/ml. All tested compounds were di-trifluoroacetic acid salts.

[9] = Erythrocyte, Example 4, hemolytic activity, human red blood cells, highest concentration tested 1000 μg/ml, read-out: EC50 RBC
[10] = phospholipid vesicle based barrier model
[11] = Staphylococcus aureus, ATCC33591, Example 4, ATCC 33591, di-trifluoroacetate salts, highest concentration tested 200 μg/ml
[12] = Staphylococcus epidermidis, ATCC 27626 / MRSE, Example 4, ATCC 27626, di-trifluoroacetate salts, highest concentration tested 200 μg/ml
[13] = Staphylococcus aureus, ATCC25923, Example 4, ATCC 25923, di-trifluoroacetate salts, highest concentration tested 200 μg/ml
[14] = Escherichia coli, ATCC25922, Example 4, ATCC 25922, di-trifluoroacetate salts, highest concentration tested 200 μg/ml

Row | proteolytic stability against α-chymotrypsin [1] | MIC MRSA ([4]; ATCC 33591) | MIC ([5]; ATCC 27626) | MIC ([6]; ATTC 25923) | MIC [8] | MIC [4, 11] | MIC [5, 12] | MIC [6, 13] | MIC [7, 14] | SMILES | MBC MRSA ([4]; ATCC 33591) | MBC MRSE ([5]; ATCC 27626) | MBC S. aureus ([6]; ATTC 25923) | MBC E. coli ([7]; ATTC 25922) | EC50 [2, 9] | Therapeutic index MRSA ([4]; EC50 RBC divided by MIC) | Therapeutic index MRSE ([5]; EC50 RBC divided by MIC) | Therapeutic index S. aureus ([6]; EC50 RBC divided by MIC) | Therapeutic index E. coli ([7]; EC50 RBC divided by MIC) | Therapeutic index P. aeruginosa [8] | further results
1 | no degradation could be detected | 7.2 µM (≈ 3.66 µg/mL) | – | – | – | – | – | – | – | CN(C)CCN1CCN(C(=O)C(CN)(Cc2ccc3ccccc3c2)Cc2ccc3ccccc3c2)CC1 [Compound 4c] | 7.2 µM (≈ 3.66 µg/mL) | 7.2 µM (≈ 3.66 µg/mL) | 7.2 µM (≈ 3.66 µg/mL) | 289 µM (≈ 147 µg/mL) | – | – | – | – | – | – | EC50 RBC ([2]; Example 1, 50% hemolysis of human red blood cells, highest concentration tested 1000 μg/ml): — (The notation “—”denotes no detectable activity (MIC or EC50) within the concentration range tested.); EC50 ([2]; red cells of human): 409 µM; permeability, model's classification of absorption ([3]; not told): moderately absorbed in humans; Therapeutic index MRSA ([4]; ATCC 33591): 120; MIC ([4]; ATCC 33591): 3.4 µM (≈ 1.73 µg/mL); Therapeutic index MRSE ([5]; ATCC 27626): 29; Therapeutic index S. aureus ([6]; ATTC 25923): 20; Therapeutic index E. coli ([7]; ATTC 25922): 8.5
2 | no degradation could be detected | 5.0 µM (≈ 2.62 µg/mL) | 6.6 µM (≈ 3.46 µg/mL) | 6.6 µM (≈ 3.46 µg/mL) | – | – | – | – | – | N=C(N)NCCC[C@H](NC(=O)C(CN)(Cc1ccc2ccccc2c1)Cc1ccc2ccccc2c1)C(N)=O [Compound 4g] | 5.3 µM (≈ 2.78 µg/mL) | 6.6 µM (≈ 3.46 µg/mL) | 6.6 µM (≈ 3.46 µg/mL) | 266 µM (≈ 140 µg/mL) | – | – | – | – | – | – | EC50 ([2]; red cells of human): 470 µM; MIC ([7]; ATTC 25922): 266 µM (≈ 140 µg/mL)
3 | no degradation could be detected | 74 µM (≈ 33.5 µg/mL) | 74 µM (≈ 33.5 µg/mL) | 147 µM (≈ 66.5 µg/mL) | – | – | – | – | – | Cc1ccc(CC(CN)(Cc2ccc(C)cc2)C(=O)N[C@@H](CCCNC(=N)N)C(N)=O)cc1 [Compound 4h] | 110 µM (≈ 49.8 µg/mL) | 110 µM (≈ 49.8 µg/mL) | 147 µM (≈ 66.5 µg/mL) | >294 µM | – | – | – | – | – | – | –
4 | no degradation could be detected | 3.2 µM (≈ 1.79 µg/mL) | 12.7 µM (≈ 7.12 µg/mL) | 12.7 µM (≈ 7.12 µg/mL) | – | – | – | – | – | N=C(N)NCCC[C@H](NC(=O)C(CN)(Cc1ccc(C(F)(F)F)cc1)Cc1ccc(C(F)(F)F)cc1)C(N)=O [Compound 4i] | 6.3 µM (≈ 3.53 µg/mL) | 12.7 µM (≈ 7.12 µg/mL) | 12.7 µM (≈ 7.12 µg/mL) | >254 µM | – | – | – | – | – | – | MIC ([7]; ATTC 25922): 254 µM (≈ 142 µg/mL)
5 | no degradation could be detected | 3.3 µM (≈ 1.77 µg/mL) | 5.0 µM (≈ 2.68 µg/mL) | 6.5 µM (≈ 3.49 µg/mL) | – | – | – | – | – | CC(C)(C)c1ccc(CC(CN)(Cc2ccc(C(C)(C)C)cc2)C(=O)N[C@@H](CCCNC(=N)N)C(N)=O)cc1 [Compound 4k] | 6.5 µM (≈ 3.49 µg/mL) | 5.2 µM (≈ 2.79 µg/mL) | 6.5 µM (≈ 3.49 µg/mL) | 46 µM (≈ 24.7 µg/mL) | – | – | – | – | – | – | MIC ([7]; ATTC 25922): 46 µM (≈ 24.7 µg/mL)
6 | no degradation could be detected | 259 µM (≈ 141 µg/mL) | 129 µM (≈ 70.3 µg/mL) | 259 µM (≈ 141 µg/mL) | – | – | – | – | – | COc1cc(CC(CN)(Cc2cc(OC)cc(OC)c2)C(=O)N[C@@H](CCCNC(=N)N)C(N)=O)cc(OC)c1 [Compound 4m] | 259 µM (≈ 141 µg/mL) | 129 µM (≈ 70.3 µg/mL) | >259 µM | >259 µM | – | – | – | – | – | – | –
7 | – | – | – | – | > 200 mg/L | 7.4 µM | 15 µM | 15 µM | 22 µM | CN1CCN(C(=O)C(CN)(Cc2ccc3ccccc3c2)Cc2ccc3ccccc3c2)CC1 [Entry 5c] | – | – | – | – | 303 µM | 41 | 20 | 20 | 14 | – | experimental permeability values, rank ([3]; among 4c, 5c, 6c and 7c): highest permeability; permeability, model's classification of absorption [3, 10]: moderately absorbed in humans
8 | – | – | – | – | 289 µM | 15 µM | 7.2 µM | 15 µM | 15 µM | CN1CCN(C(=O)C(CN)(Cc2ccc(C(C)(C)C)cc2)Cc2ccc(C(C)(C)C)cc2)CC1 [Entry 5d] | – | – | – | – | 348 µM | 23 | 48 | 23 | 23 | 1.2 | –
9 | – | – | – | – | 300 µM | 7.5 µM | 7.5 µM | 7.5 µM | 23 µM | CN(C)CCNC(=O)C(CN)(Cc1ccc2ccccc2c1)Cc1ccc2ccccc2c1 [Entry 6c] | – | – | – | – | 117 µM | 16 | 16 | 16 | 5.1 | 0.4 | permeability, model's classification of absorption [3, 10]: moderately absorbed in humans
10 | – | – | – | – | 74 µM | 7.4 µM | 3.7 µM | 7.4 µM | 7.4 µM | CN(C)CCNC(=O)C(CN)(Cc1ccc(C(C)(C)C)cc1)Cc1ccc(C(C)(C)C)cc1 [Entry 6d] | – | – | – | – | 274 µM | 37 | 74 | 37 | 37 | 3.7 | –
11 | – | – | – | – | 55 µM | 7.8 µM | 3.9 µM | 3.9 µM | 24 µM | NCCNC(=O)C(CN)(Cc1ccc2ccccc2c1)Cc1ccc2ccccc2c1 [Entry 7c] | – | – | – | – | 457 µM | 59 | 117 | 117 | 19 | 8.3 | permeability, model's classification of absorption [3, 10]: moderately absorbed in humans
12 | – | – | – | – | 23 µM | 3.8 µM | 3.8 µM | 3.8 µM | 7.7 µM | CC(C)(C)c1ccc(CC(CN)(Cc2ccc(C(C)(C)C)cc2)C(=O)NCCN)cc1 [Entry 7d] | – | – | – | – | 18 µM | 4.7 | 4.7 | 4.7 | 2.3 | 0.8 | –
